“And” between values parts separate entries of the source, which are not always exact repeats. Equal entries are not always repeated. One block for each compound: values may come before it.
How the values were obtained:
[1] = In vitro BBB permeability, BBB Kit; assay type: in vitro ADME; conditions: Wistar, rat
[2] = pH 6.8; cited from earlier work
[3] = PK study after intranasal administration; assay type: in vivo, mice; conditions: for concentration at 5 min / concentration at 15 min / concentration at 30 min / concentration at 45 min: other: intranasal, drug concentration in plasma; for Tmax at 7 days / Cmax at 7 days: 32.4 ug; for AUC(0-t): AUC0–t; for half-life: T1/2, plasma
[4] = Solubility studies of K-604 in different vehicles; assay type: physicochemical
[5] = PK study after oral administration; assay type: in vivo, mice
[6] = 0.01 N HCl solution, 32.4 μg/mouse intranasal vs oral 166 μg/mouse, cerebrum
[7] = CA solution, 108 μg/mouse intranasal vs oral 166 μg/mouse, cerebrum
[8] = GA solution, 108 μg/mouse intranasal vs oral 166 μg/mouse, cerebrum
[9] = HA solution, 108 μg/mouse intranasal vs oral 166 μg/mouse, cerebrum
[10] = female, Crl:CDI (ICR), mouse, plasma, 32.4 μg, repeated intranasal, 0.01 N HCl solution, 10 μL, mice
[11] = female, Crl:CDI (ICR), mouse, plasma, 162 μg, repeated (7 days) intranasal, 0.01 N HCl solution, 50 μL, mice
[12] = female, ICR, mouse, plasma, inhaled or intranasal, 108 ug, single intranasal, CA solution, 108 μg/10 μL, mice
[13] = female, ICR, mouse, plasma, inhaled or intranasal, 108 ug, single intranasal, GA solution, 108 μg/10 μL, mice
[14] = female, ICR, mouse, plasma, inhaled or intranasal, 108 ug, single intranasal, HA solution, 108 μg/10 μL, mice
[15] = repeated (7 days) intranasal, 0.01 N HCl solution, 32.4 μg/10 μL, mice
[16] = single intranasal, CA solution, 108 μg/10 μL, mice
[17] = single intranasal, GA solution, 108 μg/10 μL, mice
[18] = single intranasal, HA solution, 108 μg/10 μL, mice
[19] = female, ICR, mouse, cerebellum, po, 6 mg/kg
[20] = female, ICR, mouse, cerebrum, po, 6 mg/kg
[21] = female, ICR, mouse, plasma, po, 6 mg/kg
[22] = single oral 6 mg/kg (166 μg/mouse), 0.01 N HCl solution, mice

Papp at 30 min, 1 μM [1]: 47.8 ×10⁻⁶ cm/s
Compound: NC(=O)N1c2ccccc2C=Cc2ccccc21 [carbamazepine, 5H-dibenzo[b,f]azepine-5-carboxamide, reference compound]

intranasal AUC BTE index [3, 6]: 211
intranasal Cmax BTE index [3, 6]: 134
drug concentration in plasma relative to cerebral tissue, fold higher ([3]; 5 to 45 min, repeated intranasal, 0.01 N HCl solution, 50 μL, mice): 6- to 10 fold
intranasal AUC BTE index [3, 7]: 133
intranasal Cmax BTE index [3, 7]: 90
intranasal AUC BTE index [3, 8]: 100
intranasal Cmax BTE index [3, 8]: 61
intranasal AUC BTE index [3, 9]: 137
intranasal Cmax BTE index [3, 9]: 75
Tmax ([3]; female, Crl:CD1 (ICR), mouse, cerebrum, inhaled or intranasal, 108 ug): 15 min
Tmax ([3]; female, Crl:CD1 (ICR), mouse, olfactory bulb, inhaled or intranasal, 108 ug): 15 min
Tmax ([3]; female, Crl:CD1 (ICR), mouse, plasma, inhaled or intranasal, 108 ug): 5 min
Cmax ([3]; female, Crl:CDI (ICR), mouse, cerebrum, inhaled or intranasal, 162 ug, cerebrum, repeated (7 days) intranasal, 0.01 N HCl solution, 162 μg/50 μL, mice): 83 ng/g
Cmax ([3]; female, Crl:CDI (ICR), mouse, cerebrum, inhaled or intranasal, 162 ug, cerebrum, single intranasal, 0.01 N HCl solution, 162 μg/50 μL, mice): 66 ng/g
Cmax ([3]; female, Crl:CDI (ICR), mouse, olfactory bulb, inhaled or intranasal, 162 ug, olfactory bulb, repeated (7 days) intranasal, 0.01 N HCl solution, 162 μg/50 μL, mice): 285 ng/g
Cmax ([3]; female, Crl:CDI (ICR), mouse, olfactory bulb, inhaled or intranasal, 162 ug, olfactory bulb, single intranasal, 0.01 N HCl solution, 162 μg/50 μL, mice): 406 ng/g
AUC ([3]; female, Crl:CDI (ICR), mouse, plasma, inhaled or intranasal, 162 ug): 345 ng·h/mL
Cmax ([3]; female, Crl:CDI (ICR), mouse, plasma, inhaled or intranasal, 162 ug, plasma, repeated (7 days) intranasal, 0.01 N HCl solution, 162 μg/50 μL, mice): 870 ng/mL
Cmax ([3]; female, Crl:CDI (ICR), mouse, plasma, inhaled or intranasal, 162 ug, plasma, single intranasal, 0.01 N HCl solution, 162 μg/50 μL, mice): 574 ng/mL
concentration at 5 min [3, 10]: 142 ng/mL
concentration at 15 min [3, 10]: 90 ng/mL
concentration at 30 min [3, 10]: 33 ng/mL
concentration at 45 min [3, 10]: 10 ng/mL
concentration at 5 min [3, 11]: 870 ng/mL
concentration at 15 min [3, 11]: 449 ng/mL
concentration at 30 min [3, 11]: 250 ng/mL
concentration at 45 min [3, 11]: 77 ng/mL
Tmax at 7 days ([3]; female, ICR, mouse, cerebrum, inhaled or intranasal): 5 min
Cmax at 7 days ([3]; female, ICR, mouse, cerebrum, inhaled or intranasal, repeated (7 days) intranasal, 0.01 N HCl solution, 32.4 μg/10 μL, mice): 21 ± 10 ng/g
Tmax ([3]; female, ICR, mouse, cerebrum, inhaled or intranasal, 108 ug): 5 min
Cmax ([3]; female, ICR, mouse, cerebrum, inhaled or intranasal, 108 ug, single intranasal, CA solution, 108 μg/10 μL, mice): 47 ± 29 ng/g
Cmax ([3]; female, ICR, mouse, cerebrum, inhaled or intranasal, 108 ug, single intranasal, GA solution, 108 μg/10 μL, mice): 32 ± 7 ng/g
Cmax ([3]; female, ICR, mouse, cerebrum, inhaled or intranasal, 108 ug, single intranasal, HA solution, 108 μg/10 μL, mice): 39 ± 11 ng/g
Tmax at 7 days ([3]; female, ICR, mouse, olfactory bulb, inhaled or intranasal): 5 min
Cmax at 7 days ([3]; female, ICR, mouse, olfactory bulb, inhaled or intranasal, repeated (7 days) intranasal, 0.01 N HCl solution, 32.4 μg/10 μL, mice): 156 ± 131 ng/g
Tmax ([3]; female, ICR, mouse, olfactory bulb, inhaled or intranasal, 108 ug): 5 min
Cmax ([3]; female, ICR, mouse, olfactory bulb, inhaled or intranasal, 108 ug, single intranasal, CA solution, 108 μg/10 μL, mice): 351 ± 112 ng/g
Cmax ([3]; female, ICR, mouse, olfactory bulb, inhaled or intranasal, 108 ug, single intranasal, GA solution, 108 μg/10 μL, mice): 160 ± 24 ng/g
Cmax ([3]; female, ICR, mouse, olfactory bulb, inhaled or intranasal, 108 ug, single intranasal, HA solution, 108 μg/10 μL, mice): 274 ± 100 ng/g
Tmax at 7 days ([3]; female, ICR, mouse, plasma, inhaled or intranasal): 5 min
Cmax at 7 days ([3]; female, ICR, mouse, plasma, inhaled or intranasal, repeated (7 days) intranasal, 0.01 N HCl solution, 32.4 μg/10 μL, mice): 146 ± 20 ng/mL
Tmax ([3]; female, ICR, mouse, plasma, inhaled or intranasal, 108 ug): 5 min
AUC(0-t) [3, 12]: 165 ng·h/mL
AUC(0-t) [3, 13]: 121 ng·h/mL
AUC(0-t) [3, 14]: 170 ng·h/mL
Cmax [3, 12]: 283 ± 121 ng/mL
Cmax [3, 13]: 217 ± 51 ng/mL
Cmax [3, 14]: 274 ± 30 ng/mL
half-life [3, 12]: 13.4 ± 1.7 min
half-life [3, 13]: 16.6 ± 2.9 min
half-life [3, 14]: 17.4 ± 2.1 min
AUC0–t, cerebrum [3, 15]: 367 ng·min/g and 367 ± 121 ng·min/g
AUC0–t, olfactory bulb [3, 15]: 2113 ± 1380 ng·min/g
AUC0–t, cerebrum [3, 16]: 772 ng·min/g and 772 ± 223 ng·min/g
AUC0–t, olfactory bulb [3, 16]: 3976 ± 642 ng·min/g
Tmax, plasma [3, 16]: 5 min
AUC0–t, cerebrum [3, 17]: 579 ng·min/g and 579 ± 137 ng·min/g
AUC0–t, olfactory bulb [3, 17]: 3406 ± 2127 ng·min/g
AUC0–t, cerebrum [3, 18]: 791 ng·min/g and 791 ± 160 ng·min/g
AUC0–t, olfactory bulb [3, 18]: 5200 ± 1036 ng·min/g
solubility at 24 h ([4]; CA aqueous solution (additive 7.7 mg, 0.04 M), pH 3, thermodynamic from solid): 10.8 mg/mL
solubility at 24 h ([4]; GA aqueous solution (additive 4 mg, 0.04 M), pH 3.6, thermodynamic from solid): 10.8 mg/mL
solubility at 24 h ([4]; HA aqueous solution (additive 5 mg), pH 3.8, thermodynamic from solid): 10.8 mg/mL
solubility ([4]; water, pH 6.8, water): 0.05 mg/mL
Papp at 30 min, 1 μM [1]: 21.9 ×10⁻⁶ cm/s
Cmax [5, 19]: 0.7 ± 0.3 ng/g
Tmax [5, 19]: 15 min
Cmax [5, 20]: 0.8 ± 0.4 ng/g
Tmax [5, 20]: 15 min
AUC(0-t) [5, 21]: 3.29 ng·h/mL
Cmax [5, 21]: 6.2 ± 3.1 ng/mL
Tmax [5, 21]: 15 min
AUC0–t, cerebellum [5, 22]: 5.4 ± 4.9 ng·min/g
AUC0–t, olfactory bulb [5, 22]: 0 ± 0 ng·min/g
drug concentrations in the olfactory bulb tissue, all time points ([5]; single oral 6 mg/kg, mice, LLOQ 1 ng/g): less than the LLOQ
Compound: CSc1cc(C)nc(SC)c1NC(=O)CN1CCN(CCSc2nc3ccccc3[nH]2)CC1.Cl [K-604, 2-(4-(2-((1H-Benzo[d]imidazol-2-yl)thio)ethyl)piperazin-1-yl)-N-(6-methyl-2,4-bis(methylthio)pyridin-3-yl)acetamide hydrochloride]
Aqueous solubility [2]: 0.05 mg/mL
AUC0–t, cerebrum ([5]; single oral 6 mg/kg (166 μg/mouse), 0.01 N HCl solution, mice, 6 mg/kg): 8.9 ng·min/g and 9 ng·min/g and 8.9 ± 7.4 ng·min/g
drug concentrations in cerebrum and cerebellum tissue at 60 min ([5]; single oral 6 mg/kg, mice, LLOQ 0.5 ng/g): less than the lower limit of quantification (LLOQ)

Source: publication PMC6796924 (ACS Omega, 2019)
